# According to patent US10626144B2, “Peptide derivatives and uses thereof” (Nosopharm, priority 2014, dated 2020):
# Square brackets hold non-standard residues; d marks the D form. Peptide text beside a SMILES is read from it. * marks the point of attachment. Phe(4-NH2) = Nc1ccc(C[C@H](N)C(=O)O)cc1; Phe(4-Me) = Cc1ccc(C[C@H](N)C(=O)O)cc1; Dab(3S-OH) = NC[C@H](O)[C@H](N)C(=O)O; Phe(2-Me) = Cc1ccccc1C[C@H](N)C(=O)O; Lys(iPr) = CC(C)NCCCC[C@H](N)C(=O)O; ΔZArg = N=C(N)NCC/C=C(\N)C(=O)O; aThr = C[C@H](O)[C@H](N)C(=O)O; dOrn = NCCC[C@@H](N)C(=O)O; Orn = NCCC[C@H](N)C(=O)O; Dab = NCC[C@H](N)C(=O)O; NH(CH2)5NH2 = NCCCCCN*; NH(CH2)4NH2 = NCCCCN*
# How the values were obtained:
# Test in all cases: MIC, broth microdilution (CLSI), reference strain
# Conditions in all cases: CAMHB
# [1] = tested on: Staphylococcus aureus ATCC 13709
# [2] = tested on: Acinetobacter baumannii ATCC 19606
# [3] = tested on: Escherichia coli ATCC 25922
# [4] = tested on: Pseudomonas aeruginosa ATCC 27853
Sa: MIC Staphylococcus aureus ATCC 13709 [1],Ab: MIC Acinetobacter baumannii ATCC 19606 [2],Ec: MIC Escherichia coli ATCC 25922 [3],Pa: MIC Pseudomonas aeruginosa ATCC 27853 [4],SMILES
++ (≤8 μg/mL),+ (≤32 μg/mL),++ (≤8 μg/mL),++ (≤8 μg/mL),C[C@H](NC(=O)[C@@H](NC(=O)[C@@H](N)CCCCN)[C@@H](O)CN)C(=O)NCC(=O)N[C@H](CCCN)C(=O)N1CCC[C@H]1C(=O)N[C@@H](Cc1cnc[nH]1)C(=O)N[C@@H](CCCCN)C(=O)N/C(=C\CCNC(=N)N)C(=O)N[C@@H](CCCCN)C(=O)NCCCCCN [24.6] (H-K[Dab(3S-OH)]AG[dOrn]PHK[ΔZArg]K-{NH(CH2)5NH2})
++ (≤8 μg/mL),− (>32 μg/mL),+ (≤32 μg/mL),− (>32 μg/mL),Cc1ccccc1C[C@H](NC(=O)[C@@H]1CCCN1C(=O)[C@@H](CCCN)NC(=O)CNC(=O)[C@H](C)NC(=O)[C@@H](NC(=O)[C@@H](N)CCCCN)[C@@H](O)CN)C(=O)N[C@@H](CCCCN)C(=O)N/C(=C\CCNC(=N)N)C(=O)O [24.83] (H-K[Dab(3S-OH)]AG[dOrn]P[Phe(2-Me)]K[ΔZArg]-OH)
++ (≤8 μg/mL),− (>32 μg/mL),+ (≤32 μg/mL),− (>32 μg/mL),C[C@H](NC(=O)[C@@H](NC(=O)[C@@H](N)CCCCN)[C@@H](O)CN)C(=O)NCC(=O)N[C@H](CCCN)C(=O)N1CCC[C@H]1C(=O)N[C@@H](Cc1ccccc1)C(=O)N[C@@H](CCCCN)C(=O)N/C(=C\CCNC(=N)N)C(=O)O [24.134] (H-K[Dab(3S-OH)]AG[dOrn]PFK[ΔZArg]-OH)
++ (≤8 μg/mL),− (>32 μg/mL),+ (≤32 μg/mL),− (>32 μg/mL),Cc1ccc(C[C@H](NC(=O)[C@@H]2CCCN2C(=O)[C@@H](CCCN)NC(=O)CNC(=O)[C@H](C)NC(=O)[C@@H](NC(=O)[C@@H](N)CCCCN)[C@@H](O)CN)C(=O)N[C@@H](CCCCN)C(=O)N/C(=C\CCNC(=N)N)C(=O)O)cc1 [24.104] (H-K[Dab(3S-OH)]AG[dOrn]P[Phe(4-Me)]K[ΔZArg]-OH)
++ (≤8 μg/mL),+ (≤32 μg/mL),++ (≤8 μg/mL),++ (≤8 μg/mL),N=C(N)NCC/C=C(\NC(=O)[C@H](CCCCN)NC(=O)[C@H](Cc1cnc[nH]1)NC(=O)[C@@H]1CCCN1C(=O)[C@@H](CCCN)NC(=O)CNC(=O)[C@H](CCCN)NC(=O)[C@@H](NC(=O)[C@@H](N)CCCCN)[C@@H](O)CN)C(=O)N[C@@H](CCCCN)C(=O)NCCCCN [211.1] (H-K[Dab(3S-OH)][Orn]G[dOrn]PHK[ΔZArg]K-{NH(CH2)4NH2})
++ (≤8 μg/mL),− (>32 μg/mL),− (>32 μg/mL),− (>32 μg/mL),N=C(N)NCC/C=C(\NC(=O)[C@H](CCCCN)NC(=O)[C@H](Cc1cnc[nH]1)NC(=O)[C@@H]1CCCN1C(=O)[C@@H](CCCN)NC(=O)CNC(=O)[C@H](CO)NC(=O)[C@H](CCN)NC(=O)[C@@H](N)CCCCN)C(=O)N[C@@H](CCCCN)C(=O)NCCCCN [16.1] (H-K[Dab]SG[dOrn]PHK[ΔZArg]K-{NH(CH2)4NH2})
++ (≤8 μg/mL),− (>32 μg/mL),++ (≤8 μg/mL),− (>32 μg/mL),N=C(N)NCC/C=C(\NC(=O)[C@H](CCCCN)NC(=O)[C@H](Cc1c[nH]cn1)NC(=O)[C@@H]1CCCN1C(=O)[C@@H](CCCN)NC(=O)CNC(=O)[C@@H](NC(=O)[C@@H](NC(=O)[C@@H](N)CCCCN)[C@@H](O)CN)[C@@H](O)CN)C(=O)N[C@@H](CCCCN)C(=O)NCCCCCN [22.12] (H-K[Dab(3S-OH)][Dab(3S-OH)]G[dOrn]PHK[ΔZArg]K-{NH(CH2)5NH2}; C-terminus assumed)
+ (≤32 μg/mL),− (>32 μg/mL),− (>32 μg/mL),− (>32 μg/mL),C[C@H](NC(=O)[C@@H](NC(=O)[C@@H](N)CCCCN)[C@@H](O)CN)C(=O)NCC(=O)N[C@H](CCCN)C(=O)N1CCC[C@H]1C(=O)N[C@H](C(=O)N[C@@H](CCCCN)C(=O)N/C(=C\CCNC(=N)N)C(=O)O)[C@H](C)O [24.110] (H-K[Dab(3S-OH)]AG[dOrn]P[aThr]K[ΔZArg]-OH)
+ (≤32 μg/mL),− (>32 μg/mL),+ (≤32 μg/mL),− (>32 μg/mL),C[C@H](NC(=O)[C@@H](NC(=O)[C@@H](N)CCCCN)[C@@H](O)CN)C(=O)NCC(=O)N[C@H](CCCN)C(=O)N1CCC[C@H]1C(=O)N[C@@H](Cc1ccc(N)cc1)C(=O)N[C@@H](CCCCN)C(=O)N/C(=C\CCNC(=N)N)C(=O)O [24.105] (H-K[Dab(3S-OH)]AG[dOrn]P[Phe(4-NH2)]K[ΔZArg]-OH)
++ (≤8 μg/mL),− (>32 μg/mL),++ (≤8 μg/mL),− (>32 μg/mL),N=C(N)NCC/C=C(\NC(=O)[C@H](CCCCN)NC(=O)[C@H](Cc1cnc[nH]1)NC(=O)[C@@H]1CCCN1C(=O)[C@@H](CCCN)NC(=O)CNC(=O)[C@H](CCCNC(=N)N)NC(=O)[C@@H](NC(=O)[C@@H](N)CCCCN)[C@@H](O)CN)C(N)=O [217.1] (H-K[Dab(3S-OH)]RG[dOrn]PHK[ΔZArg]-NH2)
+ (≤32 μg/mL),− (>32 μg/mL),− (>32 μg/mL),− (>32 μg/mL),C[C@H](NC(=O)/C(=C/CCNC(=N)N)NC(=O)[C@H](CCCCN)NC(=O)[C@H](Cc1cnc[nH]1)NC(=O)[C@@H]1CCCN1C(=O)[C@@H](CCCN)NC(=O)CNC(=O)[C@H](C)NC(=O)[C@H](CCN)NC(=O)[C@@H](N)CCCCN)C(=O)NCCCCN [14.23] (H-K[Dab]AG[dOrn]PHK[ΔZArg]A-{NH(CH2)4NH2})
++ (≤8 μg/mL),− (>32 μg/mL),+ (≤32 μg/mL),− (>32 μg/mL),N=C(N)NCC/C=C(\NC(=O)[C@H](CCCCN)NC(=O)[C@H](Cc1cnc[nH]1)NC(=O)[C@@H]1CCCN1C(=O)[C@@H](CCCN)NC(=O)CNC(=O)[C@H](CCCN)NC(=O)[C@@H](NC(=O)[C@@H](N)CCCCN)[C@@H](O)CN)C(=O)O [211.2] (H-K[Dab(3S-OH)][Orn]G[dOrn]PHK[ΔZArg]-OH)
− (>32 μg/mL),− (>32 μg/mL),− (>32 μg/mL),− (>32 μg/mL),CC(C)NCCCC[C@H](N)C(=O)N[C@H](C(=O)N[C@@H](C)C(=O)NCC(=O)N[C@H](CCCN)C(=O)N1CCC[C@H]1C(=O)N[C@@H](Cc1cnc[nH]1)C(=O)N[C@@H](CCCCN)C(=O)N/C(=C\CCNC(=N)N)C(=O)O)[C@@H](O)CN [24.147] (H-[Lys(iPr)][Dab(3S-OH)]AG[dOrn]PHK[ΔZArg]-OH)
